Test results reported in US20260258035A1, “FIVE-MEMBERED AND SIX-MEMBERED NITROGEN-CONTAINING COMPOUND, AND INTERMEDIATE, PREPARATION METHOD AND USE THEREOF” (HANGZHOU SYNRX THERAPEUTICS BIOMEDICAL TECHNOLOGY CO., LTD., priority 2022, published 2026).
Where two headings read alike, the source gives them in different places.

Tests used:
PARG = PARG (Homo sapiens, UniProt Q86W56); experiment: Biochemical assay (PARG, TFMU-ADPr substrate)
[1] = system: Human breast squamous carcinoma cells HCC1806; experiment: Cell function assay (In-Cell Western, PAR/pADPr after MMS); assay type: cell-based
Method: 2. Cell Function Assay (In-Cell Western)
• 1) Human breast squamous carcinoma cells HCC1806 (ATCC) were seeded to the 384-well plate (Corning, #3764) at 20,000 cells/well, incubated for 24 h in a CO2 (5%) incubator at 37° C. to allow for complete adherence of the cells; • 2) 120 nL compounds or DMSO were added to the 384-well plate by Echo 550 (LABCYTE, #550) (final concentrations of compounds: 30000 nM, 10000 nM, 3000 nM, 1000 nM, 300 nM, 100 nM, 30 nM, 10 nM, 3 nM, 1 nM, 0 nM), and then the cells were incubated for 1 h in a CO2 (5%) incubator at 37° C.; • 3) 40 nL MMS (methyl mesylate, Sigma, #129925)(final concentration: 0.5 mM) was added to the plate by Echo 550, and the cells were treated for 1 h in a CO2 (5%) incubator at 37° C.

[2] = 4 nM PARG, 66.2 uM TFMU-ADPr, 3 min at room temperature
[3] = HCC1806, In-Cell Western, MMS treatment, read-out: IC50 (nM) in cell function assay
[4] = HCC1806, compound 1 h then 0.5 mM MMS 1 h, PAR/pADPr antibody, In-Cell Western, read-out: IC50 (nM) in cell function assay

Sequence of PARG (Q86W56 whole entry): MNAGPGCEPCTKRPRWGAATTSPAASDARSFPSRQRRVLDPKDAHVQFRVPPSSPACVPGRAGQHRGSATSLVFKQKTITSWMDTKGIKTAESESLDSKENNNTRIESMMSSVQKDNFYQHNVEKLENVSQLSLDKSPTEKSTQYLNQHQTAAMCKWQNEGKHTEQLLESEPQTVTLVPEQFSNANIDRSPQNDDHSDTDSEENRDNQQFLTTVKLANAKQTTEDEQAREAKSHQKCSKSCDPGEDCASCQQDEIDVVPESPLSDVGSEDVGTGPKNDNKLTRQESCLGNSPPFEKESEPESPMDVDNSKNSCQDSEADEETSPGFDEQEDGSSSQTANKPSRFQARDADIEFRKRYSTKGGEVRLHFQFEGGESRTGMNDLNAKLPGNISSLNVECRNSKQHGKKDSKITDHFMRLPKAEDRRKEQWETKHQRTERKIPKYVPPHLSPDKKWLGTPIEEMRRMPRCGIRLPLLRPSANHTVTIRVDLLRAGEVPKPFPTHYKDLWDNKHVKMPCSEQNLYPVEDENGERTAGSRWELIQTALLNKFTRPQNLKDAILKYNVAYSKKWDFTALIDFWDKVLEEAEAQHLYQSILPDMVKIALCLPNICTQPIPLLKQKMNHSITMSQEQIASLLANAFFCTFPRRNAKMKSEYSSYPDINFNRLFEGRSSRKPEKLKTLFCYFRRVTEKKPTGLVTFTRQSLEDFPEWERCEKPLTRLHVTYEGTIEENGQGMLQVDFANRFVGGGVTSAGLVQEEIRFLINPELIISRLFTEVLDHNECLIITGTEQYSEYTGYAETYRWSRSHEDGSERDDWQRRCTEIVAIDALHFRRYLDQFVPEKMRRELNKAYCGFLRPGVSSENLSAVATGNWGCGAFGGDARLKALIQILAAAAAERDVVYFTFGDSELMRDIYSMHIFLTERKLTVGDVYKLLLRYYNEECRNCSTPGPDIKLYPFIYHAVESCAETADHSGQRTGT

IC50 (PARG; [2]) [nM] | IC50 (PARG; PARG, TFMU-ADPr substrate) [nM] | IC50 [1, 3] [nM] | IC50 [1, 4] [nM] | Structure (SMILES) | IC50 ([1]; HCC1806, 1 h, read-out: IC50 (nM) in cell function assay) [nM] | IC50 ([1]; HCC1806, read-out: IC50 (nM) in cell function assay) [nM]
< 100 | 5.2 | 9 | < 100 | O=S(=O)(NC1(CF)CC1)c1cc(N2CC3(COCCO3)C2)c2nnc(-c3nnc(C(F)F)s3)n2c1 [Example 113, 3-(5-(difluoromethyl)-1,3,4-thiadiazol-2-yl)-N-(1-(fluoromethyl)cyclopropyl)-8-(5,8-dioxa-2-azaspiro[3.5]nonan-2-yl)-[1,2,4]triazolo[4,3-a]pyridine-6-sulfonamide] | – | –
< 100 | 1.88 | 8.51 | < 100 | O=S(=O)(NC1(CF)CC1)c1cc(N2CCC(O)(C(F)(F)F)CC2)c2nnc(-c3nnc(C(F)F)s3)n2c1 [Example 115, 3-(5-(difluoromethyl)-1,3,4-thiadiazol-2-yl)-N-(1-(fluoromethyl)cyclopropyl)-8-(4-hydroxy-4-(trifluoromethyl)piperidin-1-yl)-[1,2,4]triazolo[4,3-a]pyridine-6-sulfonamide] | – | –
< 100 | 3.16 | 4.58 | < 100 | CC(C)C(=O)N1CCN(c2cc(S(=O)(=O)NC3(C#N)CC3)cn3c(-c4nnc(C(F)F)s4)nc(Cl)c23)CC1 [Example 122, 1-chloro-N-(1-cyanocyclopropyl)-3-(5-(difluoromethyl)-1,3,4-thiadiazol-2-yl)-8-(4-isobutyrylpiperazin-1-yl)imidazo[1,5-a]pyridine-6-sulfonamide] | – | –
< 100 | 6.23 | 57.7 | < 100 | CC(C)C(=O)N1CCN(c2cc(S(=O)(=O)NC3(C(F)F)COC3)cn3c(-c4nnc(C(F)F)s4)ncc23)CC1 [Example 149, 3-(5-(difluoromethyl)-1,3,4-thiadiazol-2-yl)-N-(3-(difluoromethyl)oxetan-3-yl)-8-(4-isobutyrylpiperazin-1-yl)imidazo[1,5-a]pyridine-6-sulfonamide] | – | –
< 100 | 8.22 | 9.94 | < 100 | [2H]c1nc(-c2nnc(C(F)F)s2)n2cc(S(=O)(=O)NC3(CF)COC3)c(F)c(N3CCN(C(=O)C(C)C)CC3)c12 [Example 154, 3-(5-(difluoromethyl)-1,3,4-thiadiazol-2-yl)-7-fluoro-N-(3-(fluoromethyl)oxetan-3-yl)-8-(4-isobutyrylpiperazin-1-yl)imidazo[1,5-a]pyridine-6-sulfonamide-1-d] | – | –
< 100 | 1.58 | 5.14 | < 100 | CC(C)C(=O)N1CCN(c2cc(S(=O)(=O)NC3(C)CC3)cn3c(-c4nnc(C(F)F)s4)nc(C#N)c23)CC1 [Example 163, 1-cyano-3-(5-(difluoromethyl)-1,3,4-thiadiazol-2-yl)-8-(4-isobutyrylpiperazin-1-yl)-N-(1-methylcyclopropyl)imidazo[1,5-a]pyridine-6-sulfonamide] | – | –

Further lines, the compound ahead of its results:

Structure (SMILES) | IC50 (PARG; [2]) [nM] | IC50 (PARG; PARG, TFMU-ADPr substrate) [nM] | IC50 [1, 3] [nM] | IC50 [1, 4] [nM] | IC50 ([1]; HCC1806, 1 h, read-out: IC50 (nM) in cell function assay) [nM] | IC50 ([1]; HCC1806, read-out: IC50 (nM) in cell function assay) [nM]
C[C@@H]1CN(c2cc(S(=O)(=O)NC3(C#N)CC3)cn3c(-c4nnc(C(F)F)s4)ncc23)CCN1C(=O)C1(F)CC1 [Example 77, (R)-N-(1-cyanocyclopropyl)-3-(5-(difluoromethyl)-1,3,4-thiadiazol-2-yl)-8-(4-(1-fluorocyclopropane-1-carbonyl)-3-methylpiperazin-1-yl)imidazo[1,5-a]pyridine-6-sulfonamide] | < 100 | 24 | 14.8 | < 100 | – | –
CC(C)C(=O)N1CCN(c2cc(S(=O)(=O)NC3(C#N)CC3)cn3c(-c4nnc(C(F)F)s4)ncc23)C[C@@H]1C [Example 85, (S)-N-(1-cyanocyclopropyl)-3-(5-(difluoromethyl)-1,3,4-thiadiazol-2-yl)-8-(4-isobutyryl-3-methylpiperazin-1-yl)imidazo[1,5-a]pyridine-6-sulfonamide] | < 100 | 15.2 | 13.7 | < 100 | – | –
C[C@H]1CN(c2cc(S(=O)(=O)NC3(C#N)CC3)cn3c(-c4nnc(C(F)F)s4)ncc23)CCN1C(=O)C1(C)CC1 [Example 86, (S)-N-(1-cyanocyclopropyl)-3-(5-(difluoromethyl)-1,3,4-thiadiazol-2-yl)-8-(3-methyl-4-(1-methylcyclopropane-1-carbonyl)piperazin-1-yl)imidazo[1,5-a]pyridine-6-sulfonamide] | < 100 | 16.6 | 11.4 | < 100 | – | –
CC1(C(=O)N2C3CC2CN(c2cc(S(=O)(=O)NC4(C#N)CC4)cn4c(-c5nnc(C(F)F)s5)ncc24)C3)CC1 [Example 87, N-(1-cyanocyclopropyl)-3-(5-(difluoromethyl)-1,3,4-thiadiazol-2-yl)-8-(6-(1-methylcyclopropane-1-carbonyl)-3,6-diazabicyclo[3.1.1]heptan-3-yl)imidazo[1,5-a]pyridine-6-sulfonamide] | < 100 | 7.24 | 49.9 | < 100 | – | –
C[C@@H]1CN(c2cc(S(=O)(=O)NC3(C)COC3)cn3c(-c4nnc(C(F)F)s4)ncc23)CCN1C(=O)C1(C)CC1 [Example 88, (R)-3-(5-(difluoromethyl)-1,3,4-thiadiazol-2-yl)-8-(3-methyl-4-(1-methylcyclopropane-1-carbonyl)piperazin-1-yl)-N-(3-methyloxetan-3-yl)imidazo[1,5-a]pyridine-6-sulfonamide] | < 100 | 8.69 | 6.77 | < 100 | – | –
CC(C)[C@@H]1CN(c2cc(S(=O)(=O)NC3(C#N)CC3)cn3c(-c4nnc(C(F)F)s4)ncc23)CCN1C(=O)C1(C)CC1 [Example 96, (R)-N-(1-cyanocyclopropyl)-3-(5-(difluoromethyl)-1,3,4-thiadiazol-2-yl)-8-(3-isopropyl-4-(1-methylcyclopropane-1-carbonyl)piperazin-1-yl)imidazo[1,5-a]pyridine-6-sulfonamide] | < 100 | 2.09 | 1.68 | < 100 | – | –
CC(C)C[C@@H]1CN(c2cc(S(=O)(=O)NC3(C#N)CC3)cn3c(-c4nnc(C(F)F)s4)ncc23)CCN1C(=O)C1(C)CC1 [Example 97, (R)-N-(1-cyanocyclopropyl)-3-(5-(difluoromethyl)-1,3,4-thiadiazol-2-yl)-8-(3-isobutyl-4-(1-methylcyclopropane-1-carbonyl)piperazin-1-yl)imidazo[1,5-a]pyridine-6-sulfonamide] | < 100 | 5.01 | 7.52 | < 100 | – | –
C#CC1(NS(=O)(=O)c2cc(N3CCN(C(=O)C(C)C)CC3)c3nnc(-c4nnc(C(F)F)s4)n3c2)COC1 [Example 101, 3-(5-(difluoromethyl)-1,3,4-thiadiazol-2-yl)-N-(3-ethynyloxetan-3-yl)-8-(4-isobutyrylpiperazin-1-yl)-[1,2,4]triazolo[4,3-a]pyridine-6-sulfonamide] | < 100 | 8.15 | 1540 | > 1000 | – | –
CC(C)C(=O)N1CCN(c2cc(S(=O)(=O)NC3(C)COC3)cn3c(-c4nnc(C(F)F)s4)nnc23)CC1 [Example 103, 3-(5-(difluoromethyl)-1,3,4-thiadiazol-2-yl)-8-(4-isobutyrylpiperazin-1-yl)-N-(3-methyloxetan-3-yl)-[1,2,4]triazolo[4,3-a]pyridine-6-sulfonamide] | < 100 | 1.5 | 33.6 | < 100 | – | –
O=S(=O)(NC1(CF)CC1)c1cc(N2CCC3(CC2)COC3)c2nnc(-c3nnc(C(F)F)s3)n2c1 [Example 104, 3-(5-(difluoromethyl)-1,3,4-thiadiazol-2-yl)-N-(1-(fluoromethyl)cyclopropyl)-8-(2-oxa-7-azaspiro[3.5]nonan-7-yl)-[1,2,4]triazolo[4,3-a]pyridine-6-sulfonamide] | < 100 | 0.65 | 9.76 | < 100 | – | –
CN1CC2(CCN(c3cc(S(=O)(=O)NC4(CF)CC4)cn4c(-c5nnc(C(F)F)s5)nnc34)CC2)CC1=O [Example 112, 3-(5-(difluoromethyl)-1,3,4-thiadiazol-2-yl)-N-(1-(fluoromethyl)cyclopropyl)-8-(2-methyl-3-oxo-2,8-diazaspiro[4.5]decan-8-yl)-[1,2,4]triazolo[4,3-a]pyridine-6-sulfonamide] | < 100 | 3.67 | 36.3 | < 100 | – | –
[2H]C([2H])([2H])C1(NS(=O)(=O)c2cc(N3CCN(C(=O)C(C)C)CC3)c3cnc(-c4nnc(C(F)F)s4)n3c2)CC1 [Example 161, 3-(5-(difluoromethyl)-1,3,4-thiadiazol-2-yl)-8-(4-isobutyrylpiperazin-1-yl)-N-(1-(methyl-d3)cyclopropyl)imidazo[1,5-a]pyridine-6-sulfonamide] | < 100 | 0.88 | – | – | < 100 | 1.02
